Measured values: a melting point compilation (Tetko et al.; mined from patent text by program, amines drawn as free bases though some values may be those of a salt)

Row | melting point [°C] | SMILES
1 | 118 | C1=C(c2cccc(CNCCOc3cccc4c3OCC4)c2)CCC1
2 | 135 to 136 | CC(=O)OC1CC2=CCC3C4CCC(C(C)CI)C4(C)CCC3C2(C)C(OC(C)=O)C1 (stereo not given)
3 | 222 to 224 | Cn1c(=O)n(CCC[C@@H](NS(=O)(=O)c2ccc(-c3ccccc3)cc2)C(=O)O)c(=O)c2ccccc21
4 | 105 to 108 | CN1CC(CCCl)Oc2ccccc2C1=S (stereo not given)
5 | 183 to 185 | COc1cc2c(cc1Nc1ncc(Cl)c(Nc3ccccc3S(=O)(=O)N(C)C)n1)CCN(CC(C)O)CC2 (stereo not given)
6 | 140 to 141 | CNC(=O)N1CC(Oc2ccc(Cl)cc2Cl)C1
7 | 267 to 269 | C[Si](C)(C)C#Cc1ccc2c(c1)C1(c3ccccc3-c3ccccc31)c1cc(C#C[Si](C)(C)C)ccc1-2
8 | 150 | O=[N+]([O-])C=CC1=CCN(c2ccccc2)N1
9 | 206 to 208 | COC(=O)c1cn(-c2cc(C(=O)OC)c(N)cc2C(F)(F)F)cn1
10 | 185 to 187 | OCc1cc2ccnc(Cl)c2[nH]1
11 | 210 to 211 | O=[N+]([O-])c1ccc(Oc2ccc3c(c2)Nc2ccccc2S3)cc1
12 | 224 to 228 | CC=Cc1cccc2c(=O)c(C)c(C(=O)O)oc12
13 | 224 | O=C(O)c1ccccc1SSc1ccc([N+](=O)[O-])cc1C(Cl)(Cl)Cl
14 | 89 | CCOC(=O)C(C)(C)S(=O)c1ccc2c(-c3ccc(Cl)cc3)noc2c1 (stereo not given)
15 | 169 to 172 | Cc1cn(-c2cc(NC(=O)c3cccc4cc(O)ccc34)cc(C(F)(F)F)c2)cn1
16 | 171 to 173 | O=[N+]([O-])c1cc(N=c2sc(=S)n3n2CCCC3)c(F)cc1Cl
17 | 76 | COc1ccc(CC(N)(C#N)CF)cc1OC (stereo not given)
18 | 131 | Nc1ccc(Oc2ccc3cccnc3c2)cc1
19 | 86.5 to 88.5 | ClC1=NC(C2CC2)Nc2cscc21 (stereo not given)

Row | melting point [°C] | SMILES
20 | 160 to 161 | CNS(=O)(=O)c1cc2c(c(C(=O)NC3CCN(C4CCCCC4)C3)c1)OCCO2 (stereo not given)
21 | 257 to 259 | O=C1CC(c2ccccc2)Cc2[nH]c3c(c21)CCCC3 (stereo not given)
22 | 92 to 94 | CCCCCCCCCCCC(=O)C(C)(C)C(=O)Nc1c(OC)cc(OC)cc1OC
23 | 127 to 128 | CCCCC(CC)C(=O)Nc1ccc(-n2nc(C(F)(F)F)cc2C(F)(F)F)cc1 (stereo not given)
24 | 144 to 145 | CC(C)C[C@H](NC(=O)OC(C)(C)C)[C@@H](O)c1ncnn1C
25 | 242 to 243 | Cc1cncc(C)c1-c1c(C)cc(I)cc1C
26 | 212 to 214 | O=C(c1ccc(Oc2ccccc2)cc1)c1ccc(C(=O)c2ccc(Oc3ccccc3)cc2)cc1
27 | 233 to 235 | CC(=O)NC1CCc2c(C(=O)O)[nH]c(C(=O)O)c2C1 (stereo not given)
28 | 126 | CC(C(=O)NC(=O)OC1CCCCC1)(c1ccccc1)c1ccccc1
29 | 96 to 97 | C=CCOC(=O)C1=C(C)NC(C)=C(C(=O)OC(C)C)C1c1cccc([N+](=O)[O-])c1 (stereo not given)
30 | 210 | O=C1CCC2=C1C(c1ccc(F)c(Br)c1)C1=C(CCCCS1)N2 (stereo not given)
31 | 202 to 203 | Cc1cc(C(=O)c2[nH]c3cc(Cl)ccc3c2NC(=O)CC(C)C)ccc1Cl
32 | 195 to 196 | CC1(Br)C(Br)=CC(O)=C(Br)C1Br (stereo not given)
33 | 121 to 122 | CN(C)Cc1ccc(CSCCNc2nc(C(O)c3ccccc3)nn2C)o1 (stereo not given)
34 | 220 to 225 | COc1ccccc1N1CCN([C@H]2CC[C@H](c3ccc(-c4ccccc4)cc3)CC2)CC1
35 | 226 to 227 | COc1ccc2c(c1)CCC(n1cc[nH]c1=S)C2 (stereo not given)
36 | 154 to 156 | COc1cc2c(cc1OC)C(=CN1CCN(C)CC1)C(=O)N2
37 | > 300 | CCC1=C(C#N)C(c2cccc(C#N)c2Br)c2c[nH]nc2N1 (stereo not given)

Row | SMILES | melting point [°C]
38 | FC(F)(F)c1nnnn1-c1ccc(C2=NOC(c3cc(Cl)cc(Cl)c3)(C(F)(F)F)C2)cc1 (stereo not given) | 147 to 151
39 | CC1(C)NC(=O)CN1C(=O)CNC(=O)CN1CCCC1=O | 229 to 231
40 | Cc1ccc(N)c(C(=O)c2ccccc2)c1 | 64 to 66
